The record followed here is publication PMC12663137 (Nature Communications, 2025).

Values joined by “and” are separate entries in the source; they are usually repeats but may differ in a detail not shown here. Identical values can stand only once.

Assay [1] concerns the target T1, SV2A WT and mutants (Homo sapiens, UniProt Q7L0J3, C693A).
T1 construct: expressed in transfected cells; host or cells: HEK293 (ATCC CRL-1573), crude membranes
Nature of the assay: Relative binding of levetiracetam: 3H-UCB-J (10 nM) binding in presence of 10 µM levetiracetam (Fig. 2C). Conditions: C693A; 10 µM levetiracetam; SV2AWT defined as 100%. The protocol: (§1) Data are shown as mean ± s.d.; n = 6 biological replicates. […] Data shown as mean ± s.d.; n = 6 biological replicates. D Superposition of SV2A-apo (gray) and SV2A–Lev (green), showing helix-to-loop transition and inward movement of TM1 in levetiracetam-bound state. […] Source data for (B, C) are provided as a Source data file.
(§2) Ligand binding studies were carried out using crude membranes prepared from HEK293 cells (ATCC, CRL-1573) overexpressing mVenus-SV2AWT or SV2AEM. Membranes were prepared either from transiently transfected cells or from baculovirus-infected cells as described previously. Cells were washed with DPBS (Ca^2+ and Mg^2+ free), followed by resuspending in cold SH buffer (10 mM HEPES-Tris pH 7.4, 320 mM sucrose) containing protease inhibitor cocktail (MedChemExpress) to a density of 10^7 cells/ml. This cell suspension was homogenized by passing through a bead homogenizer (Isobiotec) with 10-micron clearance bead on ice. The lysate was then centrifuged at 4000 × g for 5 min at 4 °C, and the supernatant was aliquoted, frozen in liquid nitrogen, and stored at −80 °C. The mVenus fluorescence estimated using fluorescence size-exclusion chromatography (FSEC) was used to normalize expression levels of mVenus-SV2A mutants studied as detailed previously. For all binding studies, membranes containing […] protein (estimated by BCA method) per reaction were used.

Assay [2] deals with T2, SV2A WT and mutants (Homo sapiens, UniProt Q7L0J3, N690A).
T2 construct: expressed in transfected cells; host or cells: HEK293 (ATCC CRL-1573), crude membranes
T2 sequence (Q7L0J3 whole entry N690A): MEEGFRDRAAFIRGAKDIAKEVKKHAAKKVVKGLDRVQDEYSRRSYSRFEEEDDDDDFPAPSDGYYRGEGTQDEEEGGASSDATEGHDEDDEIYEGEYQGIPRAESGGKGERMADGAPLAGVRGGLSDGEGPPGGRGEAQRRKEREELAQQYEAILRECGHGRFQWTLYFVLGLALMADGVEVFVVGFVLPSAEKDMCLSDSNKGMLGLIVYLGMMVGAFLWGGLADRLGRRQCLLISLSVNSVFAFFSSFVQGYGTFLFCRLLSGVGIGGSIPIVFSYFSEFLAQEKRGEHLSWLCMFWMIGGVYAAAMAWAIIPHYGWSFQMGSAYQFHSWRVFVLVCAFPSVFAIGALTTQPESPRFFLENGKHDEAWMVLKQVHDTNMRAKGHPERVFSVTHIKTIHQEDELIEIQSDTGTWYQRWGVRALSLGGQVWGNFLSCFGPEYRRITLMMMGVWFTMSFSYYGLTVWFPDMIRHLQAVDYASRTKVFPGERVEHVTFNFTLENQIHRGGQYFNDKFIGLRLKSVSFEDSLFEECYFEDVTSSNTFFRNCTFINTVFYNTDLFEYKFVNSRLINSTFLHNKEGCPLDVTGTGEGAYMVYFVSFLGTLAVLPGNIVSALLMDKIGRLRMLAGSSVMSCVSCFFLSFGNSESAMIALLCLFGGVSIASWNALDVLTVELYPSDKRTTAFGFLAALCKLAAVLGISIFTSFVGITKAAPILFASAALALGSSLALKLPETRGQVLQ
Described as above. Particulars: N690A. As for the experimental part:
as §1, §2

For assay [3], the target named is T3, SV2A WT and mutants (Homo sapiens, UniProt Q7L0J3).
T3 construct: expressed in transfected cells; host or cells: HEK293 (ATCC CRL-1573), crude membranes
T3 sequence (Q7L0J3 whole entry, change not shown): as the sequence (Q7L0J3 whole entry N690A) above, with A690N counted along it
Described as above. Conditions: WT; 10 µM levetiracetam; SV2AWT defined as 100%. The protocol: as §1, §2

The next assay addresses T4, SV2AEM (Homo sapiens, UniProt Q7L0J3).
T4 construct: expressed in transfected cells; host or cells: HEK293 (ATCC CRL-1573), crude membranes (transient transfection or baculovirus)
As to the kind of experiment: Competitive displacement of 10 nM 3H-UCB-J, SV2AEM membranes (Fig. 1A). Type of assay: binding. The protocol: as §2
(§3) To obtain dose-response curves of studied SV2A ligands, membranes diluted in 0.2 ml binding buffer (50 mM Tris-Cl, pH 7.4, and 2 mM MgCl2) were incubated with indicated concentrations of ligands for 30 min at 4 °C. […] The binding reaction was arrested by trapping membranes on Unifilter-GF/C 96-well filter plates (Revvity) pre-soaked with 0.1%(w/v) polyethyleneimine (PEI). Membranes were then washed four times with 0.2 ml of cold binding buffer, dried, and 40 µl of scintillation liquid was added to each well. Radioactivity was monitored in MicroBeta2 plate counter (Revvity). Estimates for IC50 were obtained from fitting the data to three-parameter dose-response curves using GraphPad Prism 10.

Another assay concerns the target T5, SV2AWT (Homo sapiens, UniProt Q7L0J3).
T5 construct: expressed in transfected cells; host or cells: HEK293 (ATCC CRL-1573), crude membranes
As to the kind of experiment: Competitive displacement of 10 nM 3H-UCB-J, SV2AWT membranes (Fig. 1A). Type of assay: binding. Particulars: read-out: Binding of 3H-UCB-J (%), SV2A_WT. The protocol:
as §2, §3

In assay [4] the test system is SV2A WT, W300A, W666A, D670A. Nature of the assay: Displacement of 10 nM 3H-UCB-J by levetiracetam, binding site mutations (Fig. 2B). The arrangement: species or system human. Particulars: Fig. 2B. As for the experimental part:
as §2, with “Membranes” for “Ligand binding studies were carried out using crude membranes prepared from HEK293 cells (ATCC, CRL-1573) overexpressing mVenus-SV2AWT or SV2AEM. Membranes”
as §3

Assay [5] addresses T6, SV2A WT, W300A, W666A, D670A (Homo sapiens, UniProt Q7L0J3).
T6 construct: expressed in transfected cells; host or cells: HEK293 (ATCC CRL-1573), crude membranes
The assay is described as above. Particulars: read-out: Binding of 3H-UCB-J (%), WT. The protocol: as §2, with “Membranes” for “Ligand binding studies were carried out using crude membranes prepared from HEK293 cells (ATCC, CRL-1573) overexpressing mVenus-SV2AWT or SV2AEM. Membranes”
as §3

As a reminder, the IC50 is the concentration that gives 50% inhibition. Read a high IC50 as a need for much substance.

T4 sequence (Q7L0J3 141-742): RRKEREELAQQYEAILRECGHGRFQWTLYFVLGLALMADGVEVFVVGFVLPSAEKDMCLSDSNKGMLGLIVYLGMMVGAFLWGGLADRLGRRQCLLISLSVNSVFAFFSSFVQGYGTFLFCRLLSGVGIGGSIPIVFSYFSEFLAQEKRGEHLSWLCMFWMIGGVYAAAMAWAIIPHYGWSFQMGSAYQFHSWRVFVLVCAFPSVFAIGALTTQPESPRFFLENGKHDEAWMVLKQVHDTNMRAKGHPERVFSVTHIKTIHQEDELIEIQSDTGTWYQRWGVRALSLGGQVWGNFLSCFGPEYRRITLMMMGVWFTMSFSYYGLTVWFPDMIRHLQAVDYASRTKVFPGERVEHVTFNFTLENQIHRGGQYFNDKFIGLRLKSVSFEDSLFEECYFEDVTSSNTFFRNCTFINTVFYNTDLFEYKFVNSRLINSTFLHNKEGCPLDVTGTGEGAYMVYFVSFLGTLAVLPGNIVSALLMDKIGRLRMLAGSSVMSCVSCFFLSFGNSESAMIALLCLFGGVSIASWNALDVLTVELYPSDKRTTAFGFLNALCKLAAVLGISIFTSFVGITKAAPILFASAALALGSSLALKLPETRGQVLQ
T6 sequence (Q7L0J3 whole entry W300A/W666A/D670A): as the sequence (Q7L0J3 whole entry N690A) above, with W300A, W666A, D670A, A690N counted along it
T5 sequence (Q7L0J3 whole entry): as the sequence (Q7L0J3 whole entry N690A) above, with A690N counted along it
T1 sequence (Q7L0J3 whole entry C693A): as the sequence (Q7L0J3 whole entry N690A) above, with A690N, C693A counted along it

For `CC[C@@H](C(N)=O)N1CCCC1=O` [levetiracetam], the “Levetiracetam Binding (%)” value is 135.59% and 126.18% and 71.93% and 77.61% and 128.23% and 117.60% at SV2A WT and mutants [1]; 143.32% and 133.74% and 159.43% and 149.90% and 155.36% and 156.86% on SV2A WT and mutants [2] (10 µM levetiracetam, SV2AWT defined as 100%); 102.09% and 117.44% and 93.09% and 74.67% and 113.64% and 99.03% on SV2A WT and mutants [3]. In addition, the “effect of mutation on levetiracetam binding” value on SV2A WT and mutants [2] is on record as “enhances levetiracetam binding”. Also, the IC50 at SV2AEM was 9.5 µM. At SV2AEM (competition with 3H-UCB-J), the “binding response of SV2AEM vs wild-type SV2A” value is listed as “comparable to those of wild-type SV2A”. Besides, the remaining activity at 10 µM stood at 53.7% at SV2AEM (read-out: Binding of 3H-UCB-J (%), SV2A_EM, Log [Levetiracetam] (M) -5.000) and 66.1% at SV2AWT (Log [Levetiracetam] (M) -5.000). On SV2AWT (Log [Levetiracetam] (M) -3.523), the remaining activity at 300 µM was found to be 10.8%. For the same compound, the remaining activity at 100 µM on SV2AWT (Log [Levetiracetam] (M) -4.000) stood at 22.8%. At SV2AWT (Log [Levetiracetam] (M) -6.000), the remaining activity at 1 µM was determined as 95%. Also, the remaining activity at 0.1 µM at SV2AWT (Log [Levetiracetam] (M) -7.000) worked out at 95.2%. Also, the remaining activity at 0.01 µM on SV2AWT (Log [Levetiracetam] (M) -8.000) turned out to be 92.5%. Also, the “reduction of levetiracetam binding by mutating Trp300, Trp666, Asp670” value in assay [4] is approximately 1000 fold. Moreover, the 3H-UCB-J binding at 1000 µM in assay [5] (Log [Levetiracetam] (M) -3.000) worked out at 6.22%. In addition, the 3H-UCB-J binding at 100 µM in assay [5] (Log [Levetiracetam] (M) -4.000) was 31.9%. Besides, in assay [5] (Log [Levetiracetam] (M) -5.523), the 3H-UCB-J binding at 3 µM was found to be 73.5%. The 3H-UCB-J binding at 1 µM in assay [5] (Log [Levetiracetam] (M) -6.000) worked out at 84.4%.
